Assay results taken from ChEMBL document CHEMBL5209572, “Membrane potential based assay for SLC22A4 using HEK-293 SLC22A4 OE cells” (2022).

Molecular target: T1, Solute carrier family 22 member 4 (Homo sapiens, UniProt Q9H015)
T1 sequence (Q9H015 whole entry): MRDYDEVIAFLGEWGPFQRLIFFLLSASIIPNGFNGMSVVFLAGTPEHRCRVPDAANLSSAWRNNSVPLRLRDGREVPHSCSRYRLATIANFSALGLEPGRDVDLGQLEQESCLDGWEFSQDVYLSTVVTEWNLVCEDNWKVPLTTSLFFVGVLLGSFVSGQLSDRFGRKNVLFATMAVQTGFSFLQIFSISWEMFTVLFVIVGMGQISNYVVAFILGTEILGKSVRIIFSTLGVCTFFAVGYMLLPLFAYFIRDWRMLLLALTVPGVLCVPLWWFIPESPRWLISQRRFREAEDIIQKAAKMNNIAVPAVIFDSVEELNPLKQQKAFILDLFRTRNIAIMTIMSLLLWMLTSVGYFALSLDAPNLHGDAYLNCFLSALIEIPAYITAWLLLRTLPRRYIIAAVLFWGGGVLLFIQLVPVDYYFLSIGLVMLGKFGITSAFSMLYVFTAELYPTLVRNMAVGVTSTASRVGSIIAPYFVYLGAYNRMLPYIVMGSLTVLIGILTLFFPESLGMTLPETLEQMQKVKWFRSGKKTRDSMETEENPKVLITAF
Test: Substrate uptake by the Organic Cation/Carnitine Transporter 1 (OCTN1, SLC22A4) as assessed by the fluorescent FLIPR membrane potential dye in HEK-293 cells stably transfected with SLC22A4 (PubChem AID: 1794816)
Assay type: functional, cell-based, HEK293

## C[N+](C)(C)[C@@H](Cc1c[nH]c(=S)[nH]1)C(=O)[O-]
  EC50: 40 µM
